Laboratory results taken from patent publication US12557815B2, “Herbicide combinations comprising glufosinate and pyraflufen-ethyl” (BASF SE, priority 2020, dated 2026).

Tested on: Kochia (Bassia scoparia)
Experiment: Greenhouse post emergence treatment, visual herbicidal control on a scale from 0 to 100
Format: in vivo
Description: Synergism can be described as an interaction where the combined effect of two or more compounds is greater than the sum of the individual effects of each of the compounds. The presence of a synergistic effect in terms of percent control, between two mixing partners (X and Y) can be calculated using the Colby equation (Colby, S. R., 1967, Calculating Synergistic and Antagonistic Responses in Herbicide Combinations, Weeds, 15, 21-22):
When the observed combined control effect is greater than the expected (calculated) combined control effect (E), then the combined effect is synergistic.
Weeds included Kochia (Bassia scoparia). However, the herbicidal effect afforded by the compounds, mixtures or compositions is not limited to these species. The analysis of synergism or antagonism between the mixtures or compositions was determined using Colby's equation.
Pots with 0.3 L of volume were filled with soil (SunGro Horticulture, Agawam, MA 01001) to grow one plant per pot in the greenhouse until the desired developmental stage. Environmental conditions inside the greenhouse were set up for 25° C., 75% relative humidity, and 12 h light day^−1 with natural sunlight or 500 […] PAR for cloudy days. […] During this time, the plants were tended, and their response to the individual treatments was evaluated. […]

SMILES: CP(=O)(O)CCC(N)C(=O)O (racemic) [Glufosinate, (2RS)-2-amino-4-[hydroxy(methyl)phosphinoyl]butyric acid]
- Herbicidal activity against Kochia (21 DAT) Found (Glufosinate 420 g ai/ha alone, visual scale 0 to 100 (100 = complete destruction), mean of three replications): 25

SMILES: CCOC(=O)COc1cc(-c2nn(C)c(OC(F)F)c2Cl)c(F)cc1Cl [Pyraflufen, pyraflufen-ethyl]
- Herbicidal activity against Kochia (21 DAT) Found (Pyraflufen 0.2 g ai/ha alone, visual scale 0 to 100, mean of three replications): 32
